According to ChEMBL document CHEMBL1157238, “An unusual oxalylated tetramic acid from the New Zealand basidiomycete Chamonixia pachydermis” (2006):

Tested on: Bacillus subtilis
Test: Antibacterial activity against Bacillus subtilis at 40 ug by agar diffusion assay
Type: functional
Conditions: read-out: IZ

Structure (SMILES): O=C(O)C(=O)C1=C(O)/C(=C/c2ccc(O)c(Cl)c2)NC1=O [PACHYDERMIN]
- zone of inhibition at 40 µg/disc: 1 mm
